In patent publication US20260138962A1, “SYNTHESIS OF DERIVATIVES OF SIPH[…] THERAPEUTIC USE THEREOF” (priority 2022, published 2026):
Converted amounts (≈) assume the structure as drawn. “And” between values parts separate entries of the source, which are not always exact repeats. Identical values can stand only once.

How the values were obtained:
[1] = test system: Influenza A-type virus (strain 108 617); assay: Cytopathic Effect Reduction Assay against Influenza A (CERA-1) in MDCK cells; assay type: cell-based; details: for IC50: calculated with GraphPad Prism
[2] = test system: SARS-CoV-2 Wuhan isolate (wild type); assay: microbe, parasite or virus in culture; assay type: cell-based; details: Severe acute respiratory syndrome coronavirus 2, Vero C1008
MDCK cells = details: all test concentrations, 50.0 to 3.75 μg/mL

Row | Structure (SMILES) | inhibition ([1]; 50.0 μg/mL) | inhibition at 3.75 µg/mL ([1]; Influenza A virus, MDCK, 3.75 μg/mL) [%] | IC50 ([1]; Influenza A virus) [µg/mL] | IC50 ([2]; Wuhan strain, in vitro) [µg/mL] | inhibition at 0.5 µg/mL ([2]; Wuhan, 0.5 μg/ml, Vero E6 cells) [%] | inhibition at 2 µg/mL ([2]; Wuhan, 2 μg/ml, Vero E6 cells) [%] | inhibition at 5 µg/mL ([2]; Wuhan, 5 μg/ml, Vero E6 cells) [%] | inhibition at 16 µg/mL ([2]; Wuhan, 16 μg/ml, Vero E6 cells) [%] | inhibition at 50 µg/mL ([2]; Wuhan, 50 μg/ml, Vero E6 cells) [%] | toxicity (MDCK cells) | inhibition at 50 µg/mL ([1]; Influenza A virus, MDCK, 50.0 μg/mL) [%]
1 | CC1=C2C[C@@H]3[C@@H](C)C=CC(=O)[C@@]3(C)C[C@@]2(O)OC1=O [HLS, (4aR,5S,8aS,9aR)-9a-hydroxy-3,5,8a-trimethyl-4a,5,9,9a-tetrahydronaphtho[2,3-b]furan-2,8(4H,8aH)-dione] | > 100% and > 123% | > 30 | 9.2 (≈ 35.1 µM) | 3.03 (≈ 11.6 µM) | 25 | 50 | 75 | 100 | 100 | no toxicity | 
2 | NC(=O)c1ncn([C@@H]2O[C@H](CO)[C@@H](O)[C@H]2O)n1 [ribavirin, reference compound] |  |  | 2.16 (≈ 8.84 µM) |  |  |  |  |  |  |  | > 105
